Measured values from patent publication US4931288A, “Controlled release compositions (II)” (Lloyds Bank PLC, priority 1979, dated 1990).

Experiments:
[1] = In vitro release of prostaglandin from dry polymer cylinders/pessaries/slices into phosphate buffer pH 7.4 via 3H activity; conditions: for t1/2: pH 7.4, 37° C.; for T1/2: dried polymer sample, pH 7.4, 37°
Method: 19.08 g Prostin E2 at a 1% w/v solution in dephydrated ethanol is weighed. This is equivalent to 24.15 ml and therefore 0.2415 g PGE2.
25 of the pessaries (2.6 mm×10 mm×10 mm total weight 23.02 g) are then put in a polythene bag. The swelling solution is added, and the bag is sealed. The pessaries are then allowed to swell in the PGE2 solution for 20 hours by which time nearly all the solution has been absorbed by the polymer. The bag is cut open and the swollen pessaries are removed and weighed. Uptake of solution: 104.75 g. Average PGE2 content/pessary 9.3 mg.
The swollen pessaries are then vacuum dried at room temperature.
An identical pessary is prepared with the addition of 1 μCi ^3 H labelled PGE2 to study in vitro the release of PGE2 from the dry pessary into phosphate buffer pH 7.4 at 37° C. through measurement of ^3 H activity of the buffer solution which is replaced by fresh buffer at regular intervals.
A slice of the polymer 1 mm×11 mm×22 mm weighing 0.2678 g is added to the Ono solution in a polythene bag which is then sealed. After 6 hours swelling the bag is cut open and the swollen gel is weighed.
A slice of PEO 1.2×24×40 mm weighing 1.3083 g is added to the solution in a polythene bag which is then sealed.

[2] = In vitro release of prostaglandin from swollen (undried) polymer cylinders/pessaries into phosphate buffer pH 7.4 at 37° C.; type: physicochemical; conditions: for t1/2: pH 7.4, 37°
Method: (B) The procedure described in (A) is followed but the swollen cylinders obtained after 24 hours treatment with the PGE2 solution are not dried but are tested directly for the release of PGE2 into pH 7.4 phosphate buffer at 37° C. In this instance a typical half life is of the order of 10 hours.
To study the release of PGE2 from a fully swollen pessary into phosphate buffer pH 7.4 at 37° the polymer is swollen in an ethanol/water solution of PGE2 of 0.87 g C2 H5 OH solution of 1% w/v Prostin E2 contains 11 mg PGE2 0.09 g C2 H5 OH containing 1 μCi of ^3 HPGE2 is added, then 3.56 g H2 O. A slice of polymer 3.1 mm×10 mm×30 mm weighing 1.13 g is added to the prepared PGE2 solution in 3.7/1, w/w, water/ethanol in a polythene bag. The bag is sealed and the polymer allowed to swell over 20 hours. The swollen polymer slice is then removed and the surface wiped dry with a tissue before weighing. Uptake of solution: 4.44 g i.e. almost all the PGE2 is contained in the swollen gel. The pessary is rinsed in distilled water and then transferred to phosphate buffer solution pH 7.4 at 37° C. The release of PGE2 into the surrounding solution is measured by frequent regular replacement of the buffer and counting the activity of ^3 H in the withdrawn solution. […] It is also possible to calculate the diffusion coefficient of PGE2 in the swollen gel D=0.83×10^-6 cm^2 sec^-1.

[3] = Clinical pilot study of hydrogel vaginal pessaries containing PGE2 10 mg (induction of labour); type: in vivo, human
Method: Hydrogel vaginal pessaries, formulated as above, each containing PGE2 10 mg, have been evaluated clinically in a pilot study.

[4] = Clinical induction of abortion; type: in vivo, human; conditions: from 1 to 2.5 mg

CCCCC(C)(C)C(O)C=CC1C(O)CC(=O)C1CC=CCCCC(=O)Oc1ccc(C=NNC(N)=O)cc1 (stereo not drawn) [PG ester, 16,16 dimethyl prostaglandin E2 benzaldehyde semi-carbazone]
duration of the release pattern ([1]; Example 14, 0.25 mm slice): 2 weeks | release rate ([1]; Example 14, 0.25 mm slice, day 2): 50 µg/h | release rate ([1]; Example 14, 0.25 mm slice, overnight): 13 µg/h | character of the release ([1]; Example 14, thin (0.25 mm) sample): essentially that of a fully swollen device containing a dispersion rather than a solution of a low solubility prostaglandin analogue

CCCCC(C)(C)[C@H](O)/C=C/[C@H]1[C@H](O)CC(=O)[C@@H]1CCCC/C=C/C(=O)OC [16,16-dimethyl-trans Δ^2 -PGE1 methyl ester]
half life of release ([1]; Example 11, dry cylinders, PEG 6,000/MDI/TMP (0.75 molar) polymer, pH 7.4 phosphate buffer, typical): ~95 h

CCCCC[C@H](O)/C=C/[C@H]1[C@H](O)CC(=O)[C@@H]1C/C=C\CCCC(=O)O [PGE2]
half life for release ([2]; Example 10(B), swollen cylinders not dried, pH 7.4 phosphate buffer, 37° C., typical): ~10 h | half life in the fully swollen device relative to the initially dry device ([2]; Example 12): approximately half of the half life in the initially dry device | constancy of the rate of release ([2]; Example 12, fully swollen devices): do not provide the desirable reasonably constant period of the rate of release | half life t1/2 of PGE2 in the swollen pessary ([2]; Example 12, fully swollen pessary 3.1 mm×10 mm×30 mm, phosphate buffer pH 7.4, 37°): 2.7 h | t1/2 ([2]; Example 12, fully swollen pessary, thickness 1.2 mm): 0.7 h | t1/2 ([2]; Example 12, fully swollen pessary, thickness 2.4 mm): 2.0 h | t1/2 ([2]; Example 12, fully swollen pessary, thickness 3.1 mm): 2.7 h | diffusion coefficient of PGE2 in the swollen gel, D ([2]; Example 12, fully swollen pessary, calculated from release measurements): 0.83×10^-6 cm^2 sec^-1 | labour and delivery outcome ([3]; patients with average or favourable induction prospects, PGE2 treatment alone, without orthodox induction): became established in labour and made good progress, with successful vaginal delivery | cervical ripening ([3]; unfavourable patients): progressive | establishment in labour ([3]; unfavourable patients): all were established in labour | latent phase of labour ([3]; unfavourable patients): expectedly longer | agreement of clinical experience with in vitro release ([3]; vaginal pessaries, PGE2 10 mg): accorded well with in vitro release studies | course of uterine activity ([3]; vaginal pessaries, PGE2 10 mg): maintained or gradually increased | time to appreciable uterine activity, not requiring analgesia ([3]; vaginal pessaries, PGE2 10 mg): 1 to 2 h | ripening of the cervix ([3]; vaginal pessaries, PGE2 10 mg, all cases): significant `ripening` of the cervix in all cases | half life for release of the drug ([1]; Example 10(A), dry cylinders, PEG 6,000/MDI/TMP (0.75 molar) polymer, pH 7.4 phosphate buffer, 37° C., typical): ~20 h | t1/2 ([1]; Example 12, dry pessary, thickness 1.2 mm): 1.4 h | t1/2 ([1]; Example 12, dry pessary, thickness 1.5 mm): 2.4 h | t1/2 ([1]; Example 12, dry pessary, thickness 1.7 mm): 2.7 h | t1/2 ([1]; Example 12, dry pessary, thickness 2.6 mm): 7.0 h | t1/2 ([1]; Example 12, dry pessary, thickness 2.9 mm): 8.0 h | t1/2 ([1]; Example 12, dry pessary, thickness 3.4 mm): 12.0 h | half life t1/2 of the PGE2 in this polymer ([1]; Example 12, dry pessary, phosphate buffer pH 7.4, 37° C.): 7 h

CCCCC(C)(C)[C@@H](O)/C=C/[C@H]1[C@H](O)CC(=O)[C@@H]1CCCC/C=C/C(=O)O (relative stereo) [16:16-dimethyl-trans-Δ^2 -PGE1]
induction of abortion [4]: Induction of abortion has been effected

CS(=O)(=O)NC(=O)CCC/C=C\C[C@H]1C(=O)C[C@@H](O)[C@@H]1/C=C/[C@@H](O)COc1ccccc1 [N methanesulphonyl 15z, 11α, 13E 15α)-9-Oxo-11,15-dihydroxy-16-phenoxy-w-tetranorprosta-5,13 dien-1-amide]
half-life of the drug in the pessary ([1]; Example 15, dried slice 1.2×24×40 mm, buffer pH 7.4, 37° C.): 3.7 h

CCCCC(C)(C)[C@H](O)/C=C/[C@H]1[C@H](O)CC(=O)[C@@H]1C/C=C\CCCC(=O)OC [Ono, 16,16-dimethyl PGE2, methyl ester]
dependence of half life t1/2 on thickness ([1]; Example 13, 3 different thicknesses): directly proportional to the square of the thickness | T1/2 ([1]; Example 13, thickness 0.25 mm): 0.5 h | T1/2 ([1]; Example 13, thickness 0.65 mm): 3.0 h | T1/2 ([1]; Example 13, thickness 1.00 mm): 6.3 h | half life of Ono in this sample ([1]; Example 13, dried slice 1 mm×11 mm×22 mm, phosphate buffer pH 7.4, 37°): 6.3 h
